Patent publication USRE38132E1, “Phenylpyrrolidines, phenylimidazolidines,3-phenyl-1,3-oxizolidines and 3-phenyl-1,3-thiazolidines and their use in the treatment of inflammatory disease” (Boehringer Ingelheim Pharmaceuticals, Inc., priority 1997, dated 2003)
Read-outs that look alike come from different tables or passages of the source.

Experiments:
[1] = tested on: cell bound fibronectin receptor (VLA4) with fibronectin, SKW3 cells; assay: Inhibition of SKW3 cell binding to fibronectin (selectivity counter-assay); format: cell-based, human; settings: for IC50: read-out: Assay to Detect SKW3 Cells Binding to FIBRONECTIN IC50
Text: (§1) Assay to Determine Inhibition of SKW3 cell binding to ICAM-1 vs. Binding to Fibronectin
(§2) This assay is used to test the selective ability of a test compound to antagonize the interaction of a cell bound form of LFA-1 with ICAM-1. The assay uses a human T cell line, SKW3 cells which express CD18, CD11a and other integrins not related to CD18, CD11a and which can be “activated” by phorbol esters. Phorbol esters enhance the affinity of CD18, CD11a for ICAM-1.
(§3) This same lymphocyte line, SKW3, also adheres to fibronectin in the presence of phorbol esters. This adhesion is mediated by membrane proteins independent of the LFA-1/ICAM-1 interaction. The SKW3 cells express another integrin, VLA4, which is the receptor for fibronectin. Therefore, as a preliminary indication of the selectivity of a test compounds to interfere with Leukointegrin/CAM interactions but not other integrin-ligand binding events, a compound can be tested for its ability to antagonize cell bound fibronectin receptor in its interaction with purified fibronectin. Compounds that inhibit this fibronectin adhesion are not specific antagonists of the CD18, CD11a/ICAM-1 binding.
(§4) Description of Assay Protocol:
(§5) Ninety-six well plates are coated with either sICAM-1(40 μg/mL) or fibronectin (100 μg/mL) in Diluting buffer for 1 h at room temperature. Added to the wells are 100 μL of the appropriately diluted test compound or 100 μL of RPMI with 15% fetal bovine serum as a control. SKW3 cells, which express CD18, CD11a and VLA4 (Dustin, M.; et al., J. Exp. Med. 1987, 165, 672-692) are washed and suspended to a concentration of 10^6 cells/mL in RPMI with 15% fetal bovine serum. Immediately before adding the cells to the wells, cells are stimulated with the phorbol ester 12-myristate 13-acetate (PMA) for a final concentration of […]. 100 μL of cells are then added to the wells resulting in a final concentration of […]. The plates are incubated for 2 h at 37° C. Unbound or loosely bound cells are gently washed away with RPMI.
(§6) Data are reported as the concentration or concentration range (in μM) at which 50% of binding is inhibited.

[2] = target: T1, interaction of ICAM-1 with the Leukointegrin CD18/CD11a (LFA-1) (Homo sapiens, UniProt P05107+P20701); assay: Assay to determine inhibition of LFA-1 binding to ICAM-1 (immunopurified LFA-1 on plate-bound sICAM-1, ELISA readout)
T1 construct: endogenous in cells; sICAM-1: made in house, secreted from transfected CHO DUX cells
T1 sequence (P20701 26-1170): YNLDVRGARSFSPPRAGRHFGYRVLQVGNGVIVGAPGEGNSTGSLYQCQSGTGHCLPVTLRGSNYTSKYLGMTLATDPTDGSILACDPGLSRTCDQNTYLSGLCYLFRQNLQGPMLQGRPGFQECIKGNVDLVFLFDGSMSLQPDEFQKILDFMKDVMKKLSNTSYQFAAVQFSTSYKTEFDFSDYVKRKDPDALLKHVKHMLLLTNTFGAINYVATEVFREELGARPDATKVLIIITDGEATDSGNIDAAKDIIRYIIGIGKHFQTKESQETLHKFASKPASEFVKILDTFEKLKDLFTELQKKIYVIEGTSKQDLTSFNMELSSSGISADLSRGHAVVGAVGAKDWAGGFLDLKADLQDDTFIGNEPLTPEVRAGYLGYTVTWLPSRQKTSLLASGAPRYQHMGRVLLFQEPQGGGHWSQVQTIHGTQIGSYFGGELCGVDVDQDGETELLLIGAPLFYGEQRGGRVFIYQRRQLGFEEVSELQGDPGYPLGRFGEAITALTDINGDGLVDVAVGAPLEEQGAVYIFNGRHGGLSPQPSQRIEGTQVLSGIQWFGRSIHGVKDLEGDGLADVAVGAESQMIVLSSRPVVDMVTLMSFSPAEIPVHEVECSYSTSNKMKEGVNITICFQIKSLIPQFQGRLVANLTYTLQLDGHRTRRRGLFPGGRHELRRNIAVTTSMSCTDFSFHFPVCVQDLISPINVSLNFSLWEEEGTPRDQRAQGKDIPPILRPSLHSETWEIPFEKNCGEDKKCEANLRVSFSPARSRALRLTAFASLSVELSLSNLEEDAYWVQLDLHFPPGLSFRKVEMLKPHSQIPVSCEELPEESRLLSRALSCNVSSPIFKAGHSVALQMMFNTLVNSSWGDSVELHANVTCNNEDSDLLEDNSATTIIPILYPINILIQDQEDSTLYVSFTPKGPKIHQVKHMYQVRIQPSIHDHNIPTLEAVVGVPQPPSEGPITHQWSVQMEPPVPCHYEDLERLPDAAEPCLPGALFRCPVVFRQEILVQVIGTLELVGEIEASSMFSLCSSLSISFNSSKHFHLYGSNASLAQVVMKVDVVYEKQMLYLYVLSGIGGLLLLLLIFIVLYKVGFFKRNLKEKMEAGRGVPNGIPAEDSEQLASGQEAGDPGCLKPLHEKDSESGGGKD
T1 sequence (P05107 23-769): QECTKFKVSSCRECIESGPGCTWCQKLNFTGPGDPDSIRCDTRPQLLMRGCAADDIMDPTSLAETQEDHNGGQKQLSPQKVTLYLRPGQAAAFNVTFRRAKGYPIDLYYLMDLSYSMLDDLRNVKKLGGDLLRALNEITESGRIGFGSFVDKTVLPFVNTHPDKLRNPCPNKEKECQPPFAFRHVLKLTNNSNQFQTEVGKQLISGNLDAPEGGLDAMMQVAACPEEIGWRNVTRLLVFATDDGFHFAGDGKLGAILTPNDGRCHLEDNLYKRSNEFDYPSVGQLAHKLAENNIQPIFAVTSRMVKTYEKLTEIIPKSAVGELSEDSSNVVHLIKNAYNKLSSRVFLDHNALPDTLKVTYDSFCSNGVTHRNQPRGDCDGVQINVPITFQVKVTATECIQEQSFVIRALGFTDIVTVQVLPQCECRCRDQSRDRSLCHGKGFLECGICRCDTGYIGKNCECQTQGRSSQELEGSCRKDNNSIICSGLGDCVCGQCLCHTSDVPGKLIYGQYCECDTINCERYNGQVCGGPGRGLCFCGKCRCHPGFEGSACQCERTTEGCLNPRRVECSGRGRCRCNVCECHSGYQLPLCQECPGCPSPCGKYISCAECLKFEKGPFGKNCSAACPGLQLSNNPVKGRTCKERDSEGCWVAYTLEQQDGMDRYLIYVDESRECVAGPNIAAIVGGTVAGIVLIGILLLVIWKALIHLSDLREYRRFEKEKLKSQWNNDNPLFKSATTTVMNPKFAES
Text: Assay to Determine Inhibition of LFA-1 Binding to ICAM-1 Purpose of Assay: This assay protocol is designed to study the direct antagonism, by a test compound, of the interaction of the CAM, ICAM-1 with the Leukointegrin CD18/CD11a (LFA-1). […] After collection and neutralization of fractions from the TS2/4 column, samples are pooled and precleared with Protein G agarose. […] Wells are washed 3 times with Diluting Buffer. The bound LFA-1 is detected by the addition of a polyclonal antibody directed against a peptide corresponding to the CD18 cytoplasmic tail in a 1:100 dilution with Diluting Buffer and 1% BSA and allowed to incubate for 45 min at 37° C. Wells are washed 3 times with Diluting Buffer and the bound polyclonal antibody is detected by the addition of a 1:4000 dilution of horse radish peroxidase conjugated to goat immunoglobulin directed against rabbit immunoglobulin. […] The lack of the addition of LFA-1 to the binding assay is used as a background control for all samples. A dose-response curve is obtained for all test compounds. Results of these tests are reported as Kd's in μM.

[3] = tested on: LFA-1 dependent aggregation of JY cells; assay: JY cell homotypic aggregation assay (PMA-stimulated); format: cell-based, human; settings: Homo sapiens
Text: This aggregation can be enhanced by the addition of phorbol esters. […] Thus, the extent of LFA-1-dependent binding may be determined by assessing the extent of spontaneous or phorbol ester-dependent aggregate formation.
An agent which interferes with LFA-1 -dependent aggregation can be identified through the use of an assay capable of determining whether the agent interferes with either spontaneous, or phorbol ester-dependent aggregation of Epstein-Barr virus transformed cells. It is preferable to employ cells of the JY cell line (Terhost, L; et aL, Proc. Natl. Acad. Sci. USA, 1976, 73, 910) for the homotypic aggregation assay. This assay, capable of measuring LFA-1 dependent aggregation, may be employed to identify agents which act as antagonists to the LFA-1 dependent aggregation. Such agents may act by impairing the ability of either LFA-1 or ICAM-1 to mediate aggregation. Thus, agents may be examined to directly determine if they are antagonists of LFA-1 aggregation.
as §4
JY cells are cultured in RPMI 1640 culture medium supplemented with 10% fetal calf serum and 50 μg/mL gentamycin. The cells are cultured at 37° C. in an atmosphere of 5% CO2 at a relative humidity of 95%. JY cells used in this assay are washed two times with RPMI 1640 medium containing 5 mM HEPES buffer and resuspended to a concentration of 2·10^6 cells/mL. Added to flat-bottomed, 96-well microtiter plates are 50 μL of test compound diluted in complete medium, 50 μL of complete medium with or without purified monoclonal antibodies (negative and positive controls for inhibition, respectively), 50 μL of complete medium containing 200 ng/mL of the phorbol ester phorbol myristate acetate (PMA) and 100 μL of cells at a concentration of 2·10^6 cells/mL in complete medium. This yields a final concentration of […] PMA and 2·10^5 cells/well. Cells are allowed to settle spontaneously, and the degree of aggregation is scored at various time points. […] This procedure has been described by Rothlein, R. R.; et al., J. Exp. Med. 1986, 163, 1132-1149. This paper also reported that antibody to LFA-1 is capable of inhibiting the formation of aggregates.
as §6

[4] = tested on: cell bound form of LFA-1 (CD18, CD11a) with ICAM-1, SKW3 cells; assay: Inhibition of SKW3 cell binding to ICAM-1 (PMA-stimulated); format: cell-based, human; settings: read-out: Assay to Detect SKW3 Cells Binding to ICAM IC50
Text: as §1, §2, §3, §4, §5, §6

[5] = values marked c: no inhibition observed up to highest dose
[6] = values marked e approximated from incomplete dose-response curve
[7] = Homo sapiens, SKW3, values marked c: no inhibition observed up to highest dose
[8] = No inh = no inhibition observed up to highest dose, exact quantification not always possible due to intrinsic toxicity

Row | Structure (SMILES) | Assay to Detect SKW3 Cells Binding to FIBRONECTIN IC50 [1, 5] | Kd [2, 6] [nM] | IC50 [3] [nM] | IC50 [4, 7] [nM] | Cellular Toxicity Assay MTT LD50 (SKW3 cells) [µM] | Kd [2] [nM] | IC50 ([4]; Homo sapiens, SKW3) [nM] | Assay to Detect SKW3 Cells Binding to FIBRONECTIN IC50 [1, 8] | IC50 ([1]; Homo sapiens, SKW3, No inh = no inhibition observed up to highest dose, exact quantification not always possible due to intrinsic toxicity) [nM] | IC50 [1, 7] [nM] | IC50 [1, 5] [nM] | IC50 [4, 5] [nM]
1 | CCCC1(Cc2ccc(Br)cc2)C(=O)N(c2cc(Cl)cc(Cl)c2)C(=O)N1C (stereo not drawn) [Example 173] | No inh^c | 170 | 2200 | 4800 | 200 to 400 | – | – | – | – | – | – | –
2 | C[C@@]1(Cc2ccc(Br)cc2)C(=O)N(c2cc(Cl)cc(Cl)c2)C(=O)N1CCCC[N+](C)(C)C [Example 253] | – | – | 200 | – | 100 to 200 | 50 | 1000 to 2000 | – | – | – | – | –
3 | C[C@@]1(Cc2ccc(Br)cc2)C(=O)N(c2cc(Cl)cc(Cl)c2)C(=O)N1CCCCS(=O)(=O)O [Example 250] | – | – | 100 | – | 100 to 200 | 40 | < 1000 | No inh^c | – | – | – | –
4 | C[C@@]1(Cc2ccc(Br)cc2)C(=O)N(c2cc(Cl)cc(Cl)c2)C(=O)N1CCCP(=O)(O)O [Example 223] | – | – | 200 | – | 200 to 400 | 150 | 2000 to 4000 | No inh^c | – | – | – | –
5 | [2H]C([2H])([2H])N1C(=O)N(c2cc(Cl)cc(Cl)c2)C(=O)[C@@]1(C)Cc1ccc(Br)cc1 [Example 109] | No inh^c | – | 400 | 3000 to 6000 | 100 to 200 | – | – | – | – | – | – | –
6 | C[C@@]1(Cc2ccc(Br)cc2)C(=O)N(c2cc(Cl)cc(Cl)c2)C(=O)N1CCCCCCl [Example 121] | No inh^c | 210 | 25000 | 800 to 2000 | <11 | – | – | – | – | – | – | –
7 | CC(C)(C)N1C(=O)N(c2cc(Cl)cc(Cl)c2)C(=O)C1(C)Cc1ccc(Br)cc1 (stereo not drawn) [Example 177] | No inh^c | 250 | 3700 | 7000 to 14000 | 155 to 310 | – | – | – | – | – | – | –
8 | C[C@@]1(Cc2ccc(Br)cc2)C(=O)N(c2cc(Cl)cc(Cl)c2)C(=O)N1Cc1cccc(C(=N)N)c1 [Example 243] | – | – | 3100 | – | 10 to 20 | 110 | 5000 to 6000 | No inh^c | – | – | – | –
9 | CC(C)N1C(=O)N(c2cc(Cl)cc(Cl)c2)C(=O)[C@]1(C)Cc1ccc(Br)cc1 [Example 274] | – | – | 3000 | – | 200 to 300 | 140 | 25000 to 50000 | – | > 100000 | – | – | –
10 | C[C@@]1(Cc2ccc(Br)cc2)C(=O)N(c2cc(Cl)cc(Cl)c2)C(=O)N1C(=O)C1CCCN1 (stereo partly drawn) [Example 234] | – | – | 1600 | – | 100 to 200 | – | 5000 to 10000 | No inh^c | – | – | – | –
11 | C[C@@]1(Cc2ccc(Br)cc2)C(=O)N(c2cc(Cl)cc(Cl)c2)C(=O)N1CCC[N+](C)(C)C [Example 254] | – | – | 400 | – | 100 to 200 | 80 | 1000 to 2000 | – | – | – | – | –
12 | C[C@@]1(Cc2ccc(Br)cc2)C(=O)N(c2cc(Cl)cc(Cl)c2)C(=O)N1CCCCC[N+](C)(C)C [Example 255] | – | – | 200 | – | 100 to 200 | 140 | 1000 | – | – | – | – | –
13 | O=C1CC(Cc2ccccc2)C(=O)N1c1cc(Cl)cc(Cl)c1 (stereo not drawn) [Example 76] | – | 2340 | – | 150000 to 300000 | >500 | – | – | – | – | > 300000 | – | –
14 | Cc1ccc(C[C@@]2(C)NC(=O)N(c3cc(Cl)cc(Cl)c3)C2=O)cc1 [Example 119] | No inh^c | – | 50 | < 3000 | >400 | – | – | – | – | – | – | –
15 | O=C1NC(Cc2ccc([N+](=O)[O-])cc2)C(=O)N1c1cc(Cl)cc(Cl)c1 (stereo not drawn) [Example 7] | No inh^c | 1330 | – | 50000 to 100000 | 250 to 500 | – | – | – | – | – | – | –
16 | C[C@H](c1ccccc1)[C@@H]1C(=O)N(c2cc(Cl)cc(Cl)c2)C(=O)N1C [Example 85] | – | 720 | – | 19000 to 38000 | >500 | – | – | – | – | > 75000 | – | –
17 | CC(=O)N1C(=O)N(c2cc(Cl)cc(Cl)c2)C(=O)C1(C)Cc1ccccc1 (stereo not drawn) [Example 96] | No inh^c | 460 | – | 50000 | 100 to 200 | – | – | – | – | – | – | –
18 | CC1(Cc2ccccc2)NC(=O)N(c2cc(C(F)(F)F)cc(C(F)(F)F)c2)C1=O (stereo not drawn) [Example 16] | – | 850 | – | 19000 to 38000 | 63 to 125 | – | – | – | – | > 75000 | – | –
19 | CN1C(=O)N(c2cc(C(F)(F)F)cc(C(F)(F)F)c2)C(=O)C1(C)Cc1ccccc1 (stereo not drawn) [Example 88] | – | 410 | – | – | 250 to 500 | – | – | – | – | – | > 75000 | 19000 to 38000
20 | CCN1C(=O)N(c2cc(Cl)cc(Cl)c2)C(=O)C1(C)Cc1ccccc1 (stereo not drawn) [Example 89] | No inh^c | 290 | – | 50000 | 500 | – | – | – | – | – | – | –
